Data from BindingDB's records for doi:10.1021/np200036v (National Engineering Research Center For The Emergency …, 2020).

Columns and labels:
[1] = molecular target: Receptor-type tyrosine-protein phosphatase beta (Homo sapiens, UniProt P23467); assay: Inhibition of recombinant human PTPbeta using DiFMUP as substrate preincubated for 10 mins followed by substrate addition and measured after 2 hrs
[2] = molecular target: T1, Tyrosine-protein phosphatase non-receptor type 11 (Homo sapiens, UniProt Q06124); assay: Inhibition of recombinant SHP2 (unknown origin)
T1 sequence (Q06124 whole entry): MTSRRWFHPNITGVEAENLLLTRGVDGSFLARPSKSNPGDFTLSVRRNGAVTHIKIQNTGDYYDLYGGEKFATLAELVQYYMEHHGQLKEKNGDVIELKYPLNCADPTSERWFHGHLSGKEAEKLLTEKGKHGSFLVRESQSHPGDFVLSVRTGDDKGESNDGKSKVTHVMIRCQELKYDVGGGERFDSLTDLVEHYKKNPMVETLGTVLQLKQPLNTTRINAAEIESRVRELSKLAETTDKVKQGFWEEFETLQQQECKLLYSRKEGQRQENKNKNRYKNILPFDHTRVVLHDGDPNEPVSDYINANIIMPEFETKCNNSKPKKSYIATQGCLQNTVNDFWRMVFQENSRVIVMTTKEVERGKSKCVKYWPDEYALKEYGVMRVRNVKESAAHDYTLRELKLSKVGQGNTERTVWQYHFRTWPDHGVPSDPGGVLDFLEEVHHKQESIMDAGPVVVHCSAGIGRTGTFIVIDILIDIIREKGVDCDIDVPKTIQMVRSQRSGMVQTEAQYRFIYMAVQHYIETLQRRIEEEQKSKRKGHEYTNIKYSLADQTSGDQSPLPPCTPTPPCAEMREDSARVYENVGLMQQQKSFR

[3] = molecular target: Receptor-type tyrosine-protein phosphatase F (Homo sapiens, UniProt P10586); assay: Inhibition of recombinant LAR (unknown origin)
[4] = molecular target: T2, Tyrosine-protein phosphatase non-receptor type 1 (Homo sapiens, UniProt P18031); assay: Inhibition of recombinant PTP1B (unknown origin)
T2 sequence (P18031 whole entry): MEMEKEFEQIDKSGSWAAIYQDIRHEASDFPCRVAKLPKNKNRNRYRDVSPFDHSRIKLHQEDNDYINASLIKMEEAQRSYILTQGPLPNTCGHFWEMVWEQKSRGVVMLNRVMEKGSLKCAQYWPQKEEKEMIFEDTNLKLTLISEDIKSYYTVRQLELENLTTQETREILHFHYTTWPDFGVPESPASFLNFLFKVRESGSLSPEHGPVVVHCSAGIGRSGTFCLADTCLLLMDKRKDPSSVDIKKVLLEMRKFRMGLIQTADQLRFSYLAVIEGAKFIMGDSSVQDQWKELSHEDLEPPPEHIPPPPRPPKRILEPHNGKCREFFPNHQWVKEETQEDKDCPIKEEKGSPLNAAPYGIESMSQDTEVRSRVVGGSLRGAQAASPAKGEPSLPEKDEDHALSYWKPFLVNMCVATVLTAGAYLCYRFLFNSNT

[5] = molecular target: T3, Tyrosine-protein phosphatase non-receptor type 2 (Homo sapiens, UniProt P17706); assay: Inhibition of recombinant TC-PTP (unknown origin)
T3 sequence (P17706 whole entry): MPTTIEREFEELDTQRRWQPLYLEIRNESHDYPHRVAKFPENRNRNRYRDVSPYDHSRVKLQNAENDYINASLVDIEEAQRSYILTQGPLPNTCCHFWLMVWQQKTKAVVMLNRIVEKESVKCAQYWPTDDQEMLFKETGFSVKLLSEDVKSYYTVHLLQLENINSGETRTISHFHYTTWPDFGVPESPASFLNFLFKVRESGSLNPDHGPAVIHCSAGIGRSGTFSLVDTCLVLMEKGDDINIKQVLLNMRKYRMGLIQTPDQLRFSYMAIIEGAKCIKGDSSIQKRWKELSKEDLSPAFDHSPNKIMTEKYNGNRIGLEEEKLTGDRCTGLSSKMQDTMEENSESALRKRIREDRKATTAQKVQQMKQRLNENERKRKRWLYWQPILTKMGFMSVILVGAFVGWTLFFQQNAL

Sequence of Receptor-type tyrosine-protein phosphatase beta (P23467 whole entry): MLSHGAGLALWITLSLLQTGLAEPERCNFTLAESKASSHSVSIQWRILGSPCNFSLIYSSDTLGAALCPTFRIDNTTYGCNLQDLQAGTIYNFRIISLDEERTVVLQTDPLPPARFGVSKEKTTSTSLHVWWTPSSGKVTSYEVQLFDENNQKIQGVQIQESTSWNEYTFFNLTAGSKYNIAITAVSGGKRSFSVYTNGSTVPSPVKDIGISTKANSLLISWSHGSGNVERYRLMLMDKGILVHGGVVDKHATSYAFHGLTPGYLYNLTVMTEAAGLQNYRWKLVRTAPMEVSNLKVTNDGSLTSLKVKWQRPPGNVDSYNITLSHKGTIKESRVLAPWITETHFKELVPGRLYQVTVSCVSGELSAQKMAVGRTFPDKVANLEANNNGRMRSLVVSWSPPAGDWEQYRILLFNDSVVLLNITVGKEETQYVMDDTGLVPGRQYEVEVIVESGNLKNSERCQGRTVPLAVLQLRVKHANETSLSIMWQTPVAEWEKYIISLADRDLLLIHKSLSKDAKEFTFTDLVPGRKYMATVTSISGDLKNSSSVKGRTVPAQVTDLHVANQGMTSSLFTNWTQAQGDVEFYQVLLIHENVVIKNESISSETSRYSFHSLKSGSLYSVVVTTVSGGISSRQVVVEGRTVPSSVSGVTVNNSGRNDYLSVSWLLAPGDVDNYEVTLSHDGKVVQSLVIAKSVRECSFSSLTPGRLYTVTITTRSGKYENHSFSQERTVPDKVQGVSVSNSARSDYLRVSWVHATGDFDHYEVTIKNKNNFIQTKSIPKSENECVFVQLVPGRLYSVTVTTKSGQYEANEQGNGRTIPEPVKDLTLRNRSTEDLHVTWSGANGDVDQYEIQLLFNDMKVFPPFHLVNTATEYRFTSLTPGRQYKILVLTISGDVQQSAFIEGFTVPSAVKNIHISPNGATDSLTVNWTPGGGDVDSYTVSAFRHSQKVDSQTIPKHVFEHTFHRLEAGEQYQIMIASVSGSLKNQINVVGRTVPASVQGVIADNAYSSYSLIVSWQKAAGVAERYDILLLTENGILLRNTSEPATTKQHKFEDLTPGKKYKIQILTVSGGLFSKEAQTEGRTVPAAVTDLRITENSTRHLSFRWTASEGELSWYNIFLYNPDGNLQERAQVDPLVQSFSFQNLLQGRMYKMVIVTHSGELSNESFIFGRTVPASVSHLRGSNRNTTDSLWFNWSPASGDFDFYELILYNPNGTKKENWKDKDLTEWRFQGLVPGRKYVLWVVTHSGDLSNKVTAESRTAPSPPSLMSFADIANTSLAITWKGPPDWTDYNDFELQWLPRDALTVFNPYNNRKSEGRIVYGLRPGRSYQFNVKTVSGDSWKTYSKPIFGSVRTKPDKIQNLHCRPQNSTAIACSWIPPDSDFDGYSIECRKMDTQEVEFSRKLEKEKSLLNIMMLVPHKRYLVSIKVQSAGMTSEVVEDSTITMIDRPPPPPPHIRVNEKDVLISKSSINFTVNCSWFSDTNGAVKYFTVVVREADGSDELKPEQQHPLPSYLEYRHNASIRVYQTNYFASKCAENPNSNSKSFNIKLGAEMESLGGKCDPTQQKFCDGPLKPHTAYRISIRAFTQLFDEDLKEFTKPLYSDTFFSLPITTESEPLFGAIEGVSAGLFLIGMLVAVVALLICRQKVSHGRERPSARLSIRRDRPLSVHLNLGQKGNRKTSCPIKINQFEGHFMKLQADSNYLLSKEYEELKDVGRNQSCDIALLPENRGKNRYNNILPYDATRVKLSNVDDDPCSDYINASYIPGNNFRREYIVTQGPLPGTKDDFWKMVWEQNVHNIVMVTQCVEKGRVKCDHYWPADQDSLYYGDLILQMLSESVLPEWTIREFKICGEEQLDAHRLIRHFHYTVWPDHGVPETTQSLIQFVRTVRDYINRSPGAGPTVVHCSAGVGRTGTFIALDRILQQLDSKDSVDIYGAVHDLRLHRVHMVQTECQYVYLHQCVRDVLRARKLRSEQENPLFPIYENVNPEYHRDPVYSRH
Sequence of Receptor-type tyrosine-protein phosphatase F (P10586 whole entry): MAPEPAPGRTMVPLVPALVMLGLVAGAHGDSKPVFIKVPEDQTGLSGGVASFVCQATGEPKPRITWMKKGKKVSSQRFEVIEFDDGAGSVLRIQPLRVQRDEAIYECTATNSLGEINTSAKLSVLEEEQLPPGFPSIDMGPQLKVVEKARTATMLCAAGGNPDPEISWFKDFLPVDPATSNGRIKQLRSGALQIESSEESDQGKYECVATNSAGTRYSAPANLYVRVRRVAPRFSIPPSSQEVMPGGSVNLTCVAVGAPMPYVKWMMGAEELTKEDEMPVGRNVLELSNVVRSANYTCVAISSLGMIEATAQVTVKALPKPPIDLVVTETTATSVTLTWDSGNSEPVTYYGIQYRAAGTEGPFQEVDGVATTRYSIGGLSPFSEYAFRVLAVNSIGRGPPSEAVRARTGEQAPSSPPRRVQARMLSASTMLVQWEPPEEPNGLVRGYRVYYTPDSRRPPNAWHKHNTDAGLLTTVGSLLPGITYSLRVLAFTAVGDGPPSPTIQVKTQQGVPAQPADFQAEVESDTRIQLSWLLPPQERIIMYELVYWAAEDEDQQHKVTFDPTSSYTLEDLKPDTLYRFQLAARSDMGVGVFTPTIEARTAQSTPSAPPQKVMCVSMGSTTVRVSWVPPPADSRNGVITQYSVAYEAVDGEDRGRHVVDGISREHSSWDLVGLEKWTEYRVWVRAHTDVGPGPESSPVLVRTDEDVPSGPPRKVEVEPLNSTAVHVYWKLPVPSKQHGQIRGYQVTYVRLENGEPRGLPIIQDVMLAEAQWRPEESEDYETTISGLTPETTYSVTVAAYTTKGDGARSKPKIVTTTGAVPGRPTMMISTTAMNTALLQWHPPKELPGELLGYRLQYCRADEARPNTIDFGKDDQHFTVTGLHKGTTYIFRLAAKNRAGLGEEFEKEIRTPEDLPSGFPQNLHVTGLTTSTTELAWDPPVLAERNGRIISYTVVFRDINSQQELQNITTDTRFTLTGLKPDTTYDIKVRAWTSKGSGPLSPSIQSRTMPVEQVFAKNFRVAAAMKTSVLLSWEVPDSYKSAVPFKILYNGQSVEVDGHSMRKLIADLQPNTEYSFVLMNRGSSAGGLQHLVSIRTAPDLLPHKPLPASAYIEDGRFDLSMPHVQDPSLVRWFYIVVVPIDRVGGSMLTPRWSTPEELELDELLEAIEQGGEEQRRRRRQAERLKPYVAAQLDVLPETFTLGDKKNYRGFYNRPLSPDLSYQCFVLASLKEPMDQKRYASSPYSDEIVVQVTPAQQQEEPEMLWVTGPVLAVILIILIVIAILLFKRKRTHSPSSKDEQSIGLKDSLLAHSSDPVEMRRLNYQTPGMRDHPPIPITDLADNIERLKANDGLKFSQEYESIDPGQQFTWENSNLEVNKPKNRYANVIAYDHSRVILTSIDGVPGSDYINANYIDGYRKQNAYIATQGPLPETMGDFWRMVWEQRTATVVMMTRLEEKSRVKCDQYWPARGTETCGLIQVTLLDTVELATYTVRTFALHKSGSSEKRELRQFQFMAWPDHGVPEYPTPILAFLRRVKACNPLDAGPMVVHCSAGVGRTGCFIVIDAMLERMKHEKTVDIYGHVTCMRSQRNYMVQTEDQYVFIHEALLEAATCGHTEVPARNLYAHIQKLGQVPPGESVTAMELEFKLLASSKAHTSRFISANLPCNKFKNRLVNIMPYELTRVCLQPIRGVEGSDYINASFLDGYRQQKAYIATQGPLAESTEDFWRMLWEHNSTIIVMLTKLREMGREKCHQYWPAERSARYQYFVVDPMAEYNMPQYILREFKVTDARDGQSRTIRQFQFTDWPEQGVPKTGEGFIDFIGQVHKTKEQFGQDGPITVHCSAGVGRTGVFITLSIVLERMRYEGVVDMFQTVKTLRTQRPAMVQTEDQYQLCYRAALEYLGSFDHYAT

Row | SMILES | IC50 [1] | IC50 [2] | IC50 [3] | IC50 [4] | IC50 [5]
1 | CC(C)(C)OC(=O)N1CCC(C(=O)N(Cc2ccc(NS(=O)(=O)O)cc2)c2ccccc2)CC1 | 1.45 µM | 24.7 µM | 112 µM | 123 µM | 102 µM
2 | CC(C)(C)OC(=O)N1CCC(C(=O)N(Cc2ccc(NS(=O)(=O)O)cc2)c2nc(-c3ccccc3)cs2)CC1 | 6.4 µM | – | – | – | –
3 | COC(=O)N[C@@H](Cc1ccccc1)C(=O)N(Cc1ccc(NS(=O)(=O)O)cc1)c1nc(-c2ccccc2)cs1 | 3.46 µM | – | – | – | –
4 | COC(=O)N[C@@H](Cc1ccccc1)C(=O)N(Cc1ccc(NS(=O)(=O)O)cc1)c1nc(-c2cccs2)cs1 | 6.61 µM | – | – | – | –
5 | COc1cccc(S(=O)(=O)N(Cc2ccc(NS(=O)(=O)O)cc2)c2nc(-c3ccccc3)cs2)c1 | 0.968 µM | 6.41 µM | 34.8 µM | 20.5 µM | 31.3 µM
6 | COc1ccc(S(=O)(=O)N(Cc2ccc(NS(=O)(=O)O)cc2)c2nc(-c3ccccc3)cs2)cc1 | 2.07 µM | – | – | – | –
7 | O=S(=O)(O)Nc1ccc(CN(c2nc(-c3ccccc3)cs2)S(=O)(=O)c2cccc(F)c2)cc1 | 1.24 µM | – | – | – | –
8 | O=S(=O)(O)Nc1ccc(CN(c2nc(-c3ccccc3)cs2)S(=O)(=O)c2cccc(Cl)c2)cc1 | 1.32 µM | – | – | – | –
9 | COc1cccc(S(=O)(=O)N(Cc2ccc(NS(=O)(=O)O)cc2)c2nc(-c3cccs3)cs2)c1 | 1.41 µM | – | – | – | –
10 | COc1ccc(S(=O)(=O)N(Cc2ccc(NS(=O)(=O)O)cc2)c2nc(-c3cccs3)cs2)cc1 | 1.81 µM | – | – | – | –
11 | O=S(=O)(O)Nc1ccc(CN(c2nc(-c3cccs3)cs2)S(=O)(=O)c2cccc(F)c2)cc1 | 1.07 µM | – | – | – | –
12 | O=S(=O)(O)Nc1ccc(CN(c2nc(-c3cccs3)cs2)S(=O)(=O)c2cccc(Cl)c2)cc1 | 1.75 µM | – | – | – | –
13 | O=S(=O)(O)Nc1ccc(CNc2nc(-c3cccs3)cs2)cc1 | 0.995 µM | 25.6 µM | 130 µM | > 250 µM | > 250 µM
14 | O=[N+]([O-])c1ccc(CNc2ccccc2)cc1 | – | 55.3 µM | 76.4 µM | 15.7 µM | 20.1 µM

Now from value to molecule:

Row | IC50 [1] | IC50 [2] | IC50 [3] | IC50 [4] | IC50 [5] | SMILES
15 | 1.68 µM | – | – | – | – | O=C(COc1ccc(Cl)cc1Cl)N(Cc1ccc(NS(=O)(=O)O)cc1)c1ccccc1
16 | 1.72 µM | – | – | – | – | O=C(Cc1cccc(F)c1)N(Cc1ccc(NS(=O)(=O)O)cc1)c1ccccc1
17 | 3.42 µM | – | – | – | – | COC(=O)N[C@@H](Cc1ccccc1)C(=O)N(Cc1ccc(NS(=O)(=O)O)cc1)c1ccccc1
18 | 1.78 µM | – | – | – | – | O=C(Cc1ccc(Br)c(F)c1)N(Cc1ccc(NS(=O)(=O)O)cc1)c1ccccc1
19 | 4.1 µM | – | – | – | – | O=C(Cc1cccc(F)c1)N(Cc1ccc(NS(=O)(=O)O)cc1)c1nc(-c2ccccc2)cs1
20 | 2.98 µM | 19.6 µM | 42.3 µM | 22.2 µM | 32.8 µM | O=C(c1cccnc1Cl)N(Cc1ccc(NS(=O)(=O)O)cc1)c1nc(-c2ccccc2)cs1
21 | 4.67 µM | – | – | – | – | O=C(c1ccccc1Cl)N(Cc1ccc(NS(=O)(=O)O)cc1)c1nc(-c2ccccc2)cs1
22 | 5.94 µM | – | – | – | – | O=C(c1ccccc1Cl)N(Cc1ccc(NS(=O)(=O)O)cc1)c1nc(-c2cccs2)cs1
